Assay results taken from patent publication US6878713B2, “Generation triple-targeting, chiral, broad-spectrum antimicrobial 7-substituted piperidino-quinolone carboxylic acid derivatives, their preparation, compositions and use as medicaments” (Wockhardt Limited, priority 2001, dated 2005).
Converted amounts (≈) assume the structure as drawn.

Assays:
[1] = test system: Multidrug-Resistant (MDR) Pneumococcal Infections; test: In-vivo antimicrobial test, systemic infection model (mouse septicemia), Table 22; parameters: species or system Swiss male and female mice; details: oral dosing 1 hour and 5 hours post-infection, survival on day 7, strain resistant to β-lactams, macrolides and fluoroquinolones; for ED50: Streptococcus pneumoniae, po, read-out: ED50 p.o., MDR S. pneumoniae 718; for ED50 p.o., MDR S. pneumoniae 718: hydrochloride
Method: The in vivo efficacy was studied through mouse septicemia model of infection in Swiss male and female mice (4 weeks old, 20+2 g weight) using 6 animals in each group. Infective organisms were inoculated intraperitonially. Compound were administered by oral route 1 hour and 5 hours post-infection. […] Appropriate comparators were included in the study.

J 744 (mouse macrophage) = test: Cytotoxicity test (Alamar blue), J 744 cells, Table 23; assay type: cell-based; details: 3 hrs drug exposure, further 96 hrs incubation
Method: Compounds were evaluated for their cytotoxic potential against two celllines viz. […] Cytotoxic drugs inhibit this reaction resulting into blue coloured well. Minimum drug concentration inhibiting Alamar blue color change i.e. resulting into blue coloured wells for a given drug is considered cytotoxic concentration.

[2] = test system: Fluoroquinolone-Resistant Strains; test: In-vitro antimicrobial test (MIC, two-fold serial agar dilution, NCCLS), Table 18; assay type: cell-based
Method: (§1) The test method was in accordance with the standard NCCLS protocol (Methods for Dilution Antimicrobial Susceptibility Tests for Bacteria that grow Aerobicially, Approved Standards, M7-A5, Fifth Edition, January 2000).
(§2) The antibacterial activities (minimum inhibitory concentration: MIC, […]) were determined by using the two-fold serial agar dilution method recommended by NCCLS. The media used for preculture and main culture were Tryptic Soya broth (Difco) and Mueller Hinton medium (Difco), respectively. The Mueller Hinton agar was supplemented with 5% sheep blood for streptococci. Overnight cultures were diluted with buffered saline (pH 7.2) to the final cell density of 5×10^6-10^7 CFU/ml, and each bacterial suspension was applied with a replicator (Denley's multipoint inoculator, UK) onto a series of Mueller-Hinton agar plates containing antibacterial agents at various concentrations. Final inoculum was approximately 10^4 CFU/spot. The plates were incubated for 18 hrs at 37° C. The MIC was defined as the lowest concentration of an antibacterial agent that inhibits the development of visible microbial growth on agar.

[3] = test system: Fluoroquinolone Sensitive Strains; test: In-vitro antimicrobial test (MIC, two-fold serial agar dilution, NCCLS), Table 17; assay type: cell-based; details: for MICs: hydrochloride
Method: as §1, §2

[4] = test system: V79 (Chinese Hamster Lung); test: Cytotoxicity test (Alamar blue), V79 cells, Table 23; assay type: cell-based; details: 3 hrs drug exposure, further 96 hrs incubation
Method: Compounds were evaluated for their cytotoxic potential against two […] viz. […] Cells were grown for 3-4days in a culture flask using D-MEM (Dulbecco's Modified Eagle. […] Freshly grown cells were distributed in microtiter plates at a cell density of 10^5-10^6 cells/well and allowed to […] form monolayer by incubating the microtiter plate at […] for 24 hrs. […] Following 3 hrs. of drug exposure, cell were washed with D-MEM and incubated further for 96 hrs. Cytotoxic effects of drugs were monitored through daily microscopic observation and by ascertaining the metabolic status through redox indicator Alamar blue. Healthy actively metabolising cells bring about colour change of Alamar blue from blue to pink within an overnight incubation. Cytotoxic drugs inhibit this reaction resulting into blue coloured well. Minimum drug concentration inhibiting Alamar blue color change i.e. resulting into blue coloured wells for a given drug is considered cytotoxic concentration.

[5] = Staphylococcus aureus, MRSA, MRSA 032
[6] = Streptococcus mitis, Cipro^R S. mitis 938
[7] = Streptococcus pneumoniae, FQ^R S. pneumoniae 718
[8] = Enterococcus faecalis, ATCC29212, E. faecalis ATCC 29212
[9] = Escherichia coli, ATCC25922, E. coli ATCC 25922
[10] = Pseudomonas aeruginosa, P. aeruginosa 27853
[11] = S. sanguis ATCC 10556 (Viridans Streptococci group)
[12] = Staphylococcus aureus, ATCC 25923 / MSSA, MSSA ATCC 25923
[13] = Streptococcus pneumoniae, ATCC49619, S. pneumoniae ATCC 49619
[14] = Cipro^R S. sanguis 941, hydrochloride

Structure (SMILES) | Cytotoxic concentration, J 744 Macrophage (J 744 (mouse macrophage)) | MIC ([2]; Cipro^R S. sanguis 941) | MIC [2, 5] | MIC [2, 6] | MIC [2, 7] | MIC [3, 8] | MIC [3, 9] | MIC [3, 10] | MIC [3, 11] | MIC [3, 12] | MIC [3, 13] | melting point | further results
Cc1c(N2CCC(N)C(C)(C)C2)c(F)cc2c(=O)c(C(=O)O)cn(C3CC3)c12.Cl (racemic) [Compound 102, (±)-1-Cyclopropyl-6-fluoro-1,4-dihydro-8-methyl-7-(4-amino-3,3-dimethyl-1-piperidinyl)-4-oxo-quinoline-3-carboxylic acid hydrochloride] | 1000 µg/mL | 1.56 µg/mL | 0.8 µg/mL | 1.56 µg/mL | 0.8 µg/mL | 0.05 µg/mL | 0.025 µg/mL | 3.12 µg/mL | 0.025 µg/mL | 0.025 µg/mL | 0.025 µg/mL |  | ED50 [1]: 30 mg/kg; Cytotoxic concentration, V 79 CHL [4]: 750 µg/mL
Cc1c(N2CC[C@@H](N)[C@H](C)C2)c(F)cc2c(=O)c(C(=O)O)cn(C3CC3)c12 (single isomer, unassigned) [Compound 97, trans-1-Cyclopropyl-6-fluoro-1,4-dihydro-8-methyl-7-(4-amino-3-methyl-1-piperidinyl)-4-oxo-quinoline-3-carboxylic acid] | >1000 µg/mL | 3.12 µg/mL (≈ 8.36 µM) | 0.8 µg/mL (≈ 2.14 µM) | 3.12 µg/mL (≈ 8.36 µM) | 3.12 µg/mL (≈ 8.36 µM) | 0.2 µg/mL (≈ 0.536 µM) | 0.4 µg/mL (≈ 1.07 µM) | 12.5 µg/mL (≈ 33.5 µM) | 0.2 µg/mL (≈ 0.536 µM) | 0.012 µg/mL (≈ 0.0321 µM) | 0.1 µg/mL (≈ 0.268 µM) | 223 to 225 °C | Cytotoxic concentration, V 79 CHL [4]: >1000 µg/mL
Cc1c(N2CC[C@@H](N)[C@H](C)C2)c(F)cc2c(=O)c(C(=O)O)cn(C3CC3)c12.Cl (single isomer, unassigned) [Compound 98, trans-1-Cyclopropyl-6-fluoro-1,4-dihydro-8-methyl-7-(4-amino-3-methyl-1-piperidinyl)-4-oxo-quinoline-3-carboxylic acid hydrochloride] | 1000 µg/mL | 3.12 µg/mL | 1.56 µg/mL | 1.56 µg/mL | 1.56 µg/mL | 0.1 µg/mL | 0.006 µg/mL | 1.56 µg/mL | 0.025 µg/mL | 0.025 µg/mL | 0.05 µg/mL | 262 to 265 °C | Cytotoxic concentration, V 79 CHL [4]: 250 µg/mL
COc1c(N2CCC(N)C(C)(C)C2)c(F)cc2c(=O)c(C(=O)O)cn(C3CC3)c12.Cl (single isomer, unassigned; (+)) [Compound 22, (+)-1-Cyclopropyl-6-fluoro-1,4-dihydro-8-methoxy-7-(4-amino-3,3-dimethyl-1-piperidinyl)-4-oxo-quinoline-3-carboxylic acid hydrochloride] | >1000 µg/mL |  |  | 0.8 µg/mL |  |  |  |  |  |  |  |  | ED50 p.o., MDR S. pneumoniae 718 [1]: 20 mg/kg; MICs [2, 14]: 0.2 µg/mL; MICs ([2]; MRSA 032): 0.8 µg/mL; Cytotoxic concentration, V 79 CHL ([4]; hydrochloride): 1000 µg/mL
Cc1c(N2CCC(N)C(C)(C)C2)c(F)cc2c(=O)c(C(=O)O)cn(C3CC3)c12.Cl (single isomer, unassigned; (+)) [Compound 106, (+)-1-Cyclopropyl-6-fluoro-1,4-dihydro-8-methyl-7-(4-amino-3,3-dimethyl-1-piperidinyl)-4-oxo-quinoline-3-carboxylic acid hydrochloride] |  |  |  |  |  |  | 0.05 µg/mL |  | 0.1 µg/mL | 0.025 µg/mL |  |  | Cytotoxic concentration, J 744 Macrophage (J 744 (mouse macrophage); hydrochloride): >1000 µg/mL; MICs ([2]; Cipro^R S. mitis 938, hydrochloride): 6.25 µg/mL; MICs [2, 14]: 6.25 µg/mL; MICs ([2]; FQ^R S. pneumoniae 718, hydrochloride): 1.56 µg/mL; MICs ([2]; MRSA 032, hydrochloride): 1.56 µg/mL; MICs ([3]; E. faecalis ATCC 29212): 0.2 µg/mL; MICs ([3]; P. aeruginosa 27853): 6.25 µg/mL; MICs ([3]; S. pneumoniae ATCC 49619): 0.1 µg/mL; Cytotoxic concentration, V 79 CHL ([4]; hydrochloride): >1000 µg/mL
COc1c(N2CCC(N)C(C)(C)C2)c(F)cc2c(=O)c(C(=O)O)cn(C3CC3)c12.Cl (single isomer, unassigned; (-)) [Compound 26, (−)-1-Cyclopropyl-6-fluoro-1,4-dihydro-8-methoxy-7-(4-amino-3,3-dimethyl-1-piperidinyl)-4-oxo-quinoline-3-carboxylic acid hydrochloride] | >1000 µg/mL |  | 0.8 µg/mL |  | 0.8 µg/mL |  |  |  |  |  |  |  | ED50 p.o., MDR S. pneumoniae 718 [1]: 50 mg/kg; Cytotoxic concentration, V 79 CHL ([4]; hydrochloride): >1000 µg/mL
COc1c(N2CCC(N)C(C)C2)c(F)cc2c(=O)c(C(=O)O)cn(C3CC3)c12 (centres unmarked) [Compound 1, 1-Cyclopropyl-6-fluoro-1,4-dihydro-8-methoxy-7-(4-amino-3-methyl-1-piperidinyl)-4-oxo-quinoline-3-carboxylic acid] |  |  |  |  |  |  | 0.05 µg/mL (≈ 0.128 µM) |  |  | 0.05 µg/mL (≈ 0.128 µM) | 0.2 µg/mL (≈ 0.514 µM) | 238 to 240 °C | 
CCOC(=O)NC1CCN(c2c(F)cc3c(=O)c(C(=O)O)cn(C4CC4)c3c2OC)CC1(C)C (centres unmarked) [Compound 30, 1-Cyclopropyl-6-fluoro-1,4-dihydro-8-methoxy-7-(4-carbethoxyamino-3,3-dimethyl-1-piperidinyl)-4-oxo-quinoline-3-carboxylic acid] |  |  |  |  |  |  | 0.05 µg/mL (≈ 0.105 µM) |  |  | 0.05 µg/mL (≈ 0.105 µM) | 0.1 µg/mL (≈ 0.21 µM) | 222 °C | 
Cc1c(N2CCC(N(C)C)C(C)C2)c(F)cc2c(=O)c(C(=O)O)cn(C3CC3)c12 (centres unmarked) [Compound 114, 1-Cyclopropyl-6-fluoro-1,4-dihydro-8-methyl-7-(4-dimethylamino-3-methyl-1-piperidinyl)-4-oxo-quinoline-3-carboxylic acid] |  |  |  |  |  |  | 0.05 µg/mL (≈ 0.125 µM) |  |  | 0.05 µg/mL (≈ 0.125 µM) | 0.05 µg/mL (≈ 0.125 µM) | 221 °C | 
COc1c(N2CCNC(C)C2)c(F)cc2c(=O)c(C(=O)O)cn(C3CC3)c12 (centres unmarked) [Gatifloxacin] |  |  |  |  |  |  |  |  |  |  |  |  | ED50 [1]: > 100 mg/kg
C[C@H]1COc2c(N3CCN(C)CC3)c(F)cc3c(=O)c(C(=O)O)cn1c23 [S-(−)-levofloxacin, reference compound] |  | 12.5 µg/mL (≈ 34.6 µM) | 6.25 µg/mL (≈ 17.3 µM) | 25 µg/mL (≈ 69.2 µM) | 12.5 µg/mL (≈ 34.6 µM) | 0.8 µg/mL (≈ 2.21 µM) | 0.025 µg/mL (≈ 0.0692 µM) | 3.12 µg/mL (≈ 8.63 µM) | 1.56 µg/mL (≈ 4.32 µM) | 0.2 µg/mL (≈ 0.553 µM) | 0.8 µg/mL (≈ 2.21 µM) |  | ED50 [1]: > 100 mg/kg
